The results in this text go back to patent publication US5843925A, “Methods for inhibiting angiogenesis, proliferation of endothelial or tumor cells and tumor growth” (American Cyanamid Company, priority 1994, dated 1998).

Common to all, as to format: cell-based
One experiment has as its system A2780/DDP. Put plainly: Antiproliferative activity in human tumor cell lines (A2780/DDP). The settings on record: A2780/DDP ovarian tumor cell line. On the procedure:
(§1) PROTOCOLS 1, 2, and 3 are described in greater detail hereinbelow. In general, according to PROTOCOLS 1 and 2, the target ABAE and/or Human Tumor cells are exposed to the compound of Formula I for 48 hours. PROTOCOL 3 exposes ABAE cells to the compounds for 4 days. A detailed description of the protocol is as follows:
(§2) The antiproliferative activity of the compounds of Formula I of the present invention is evaluated in a panel comprised of human tumor cell lines and an adult bovine aortic endothelial cell line (ABAE). The human tumor cell lines are from
(§3) Cultures are renewed after 20 passages with cells from a fresh stock of batch-frozen early passage cells. Cell lines are routinely checked for mycoplasma contamination (Genprobe). In a laminar flow hood, cells (1-5×10^4) are plated into 96-well microtiter plates in a volume of 0.1 ml/well with a bulk microtiter dispenser (Denley). […] Compounds are added using a Tomtec dispenser which simultaneously dispenses from one 96-well plate, containing the drug dilutions, to the plates containing the cells. After two days of continuous drug exposure, 50% cold trichloroacetic acid (TCA) is added to 10% final concentration to fix the cells, and after 60 minutes at 4° C., the TCA is aspirated and the plates are washed 5 times with deionized water using a microtiter plate washer. […] A 0.4% solution of the dye, sulforhodamine B, in […] is added to the plates, and the plates are washed 5 times with 1% glacial acetic acid using the automatic plate washed. The bound stain is solubilized with 0.1 ml of 10 mM Tris base. The optical densities are read from an automatic spectrophotometric plate reader (Dynatech) directly to a main frame computer (VAX 8600).
(§4) Positive controls, that include standard chemotherapeutic drugs (i.e., adriamycin, cisplatin, etc.), are included in every experiment.
(§5) Background optical density measurements (complete media-cells, and complete media+drug-cells) are automatically subtracted from the appropriate control and test wells. Mean values and standard errors are determined from duplicate wells. A measure is also made of the optical density at time when the drugs are added. The number of cells after treatment (P), as % of control, is calculated for every concentration of drug, as follows: [formula] wherein: T is optical density measurement for treated cells after 48 hours;
(§6) C is optical density measurement for untreated cells after 48 hours;
(§7) Co is optical density measurement for cells at the time of drug addition.
(§8) IC50 of growth inhibition is calculated from the sets of P values using the RS-1 data package (BBN Software).
(§9) Antiproliferative Activity in Human Tumor Cell Lines
(§10) The antiproliferative activity of the compounds of Formula I is evaluated in the panel comprised of human tumor cell lines as listed in PROTOCOL 1. This assay is a slight modification of PROTOCOL 1. The modifications include:
(§11) 1) each concentration for each compound is tested in a single well;
(§12) 2) compounds are tested at 20, 4, 0.8, 0.16 microgram/ml and additionally in some experiments at 100 and 0.32 microgram/ml;
(§13) 3) samples are pipetted into a 96-well plate for each of the cell lines by a Beckman Biomek 1000 SL robot;
(§14) 4) after fixing with TCA each well is washed with 0.35 ml distilled water twice, not five times;
(§15) 5) after staining with sulforhodamine B each well is washed 3 times, not five times;
(§16) 6) the growth inhibition (I) as % of control, is calculated using the RS-1 data package (BBN Software), for every concentration of drug, as follows: [formula] wherein: T is optical density measurement for treated cells after 48 hours;
(§17) 7) IC50 of growth inhibition is determined graphically from dose response curves, as is known in the art.

For experiment [1], the system named is Adult Bovine Aortic Endothelial (ABAE) cell line. Put plainly: Antiproliferative activity in Adult Bovine Aortic Endothelial (ABAE) cell line, PROTOCOL 3. The settings on record: for IC50: Bos taurus, 96 h, ABAE cells. On the procedure:
(§18) The antiproliferative activity of the compounds of Formula I in an Adult Bovine Aortic Endothelial (ABAE) cell line and in Human Tumor cells lines is evaluated in three similar assays that measure growth inhibition. The assays are identified as follows:
as §1
Antiproliferative Activity in Adult Bovine Aortic Endothelial (ABAE) Cell Line
ABAE cells are grown in DMEM media (Mediatech Washington, D.C.) supplemented with 10% calf serum (Hyclone). ABAE cells are plated in 24-well dishes at 8,000 cells/well, followed by the addition of increasing concentrations of 7-[substituted amino]-9-[(substituted glycyl)amido]-6-demethyl-6-deoxytetra-cyclines. After four days, the cells are detached and counted. […] The growth inhibition (I) as % of control is calculated as follows: [formula] wherein: Nc is the number of cells in untreated wells;
Nt is the number of cells in treated wells;
No is the number of plated cells.
IC50 of growth inhibition is determined from the sets of I values plotted by Kaleidograph software (Abelbeck Software).
Table 2 presents the results depicting the antiproliferative activity of the compounds of Formula I against an adult bovine aortic endothelial cell line (ABAE), as evaluated by PROTOCOL 1 and PROTOCOL 3. The results are presented in terms of IC50 and are as follows.

A further experiment has as its system HTB 161. Put plainly: Antiproliferative activity in human tumor cell lines (HTB 161). Here is the method: as §1, §2, §3, §4, §5, §6, §7, §8, §9, §10, §11, §12, §13, §14, §15, §16, §17
The subject of another experiment is A2780S. The experiment can be described thus: Antiproliferative activity in human tumor cell lines (A2780S). The settings on record: A2780S ovarian tumor cell line. On the procedure: as §1, §2, §3, §4, §5, §6, §7, §8, §9, §10, §11, §12, §13, §14, §15, §16, §17
Another experiment concerns Human Tumor cell lines. The experiment can be described thus: Antiproliferative activity in panel of human tumor cell lines (PROTOCOL 1 and PROTOCOL 2). To be noted: Homo sapiens; average over the tumor cell lines of Table 3. On the procedure: as §18, §1, §2
(§19) All cell lines are maintained in log phase in RPMI 1640 media, supplemented with 5% fetal calf serum, penicillin/streptomycin and 2 mM L-glutamine. Cultures are renewed after 20 passages with cells from a fresh stock of batch-frozen early passage cells. Cell lines are routinely checked for mycoplasma contamination (Genprobe). In a laminar flow hood, cells (1-5×10^4) are plated into 96-well microtiter plates in a volume of 0.1 ml/well with a bulk microtiter dispenser (Denley). […] At this concentration, dimethylsulfoxide has no effect on cell growth. Compounds are added using a Tomtec dispenser which simultaneously dispenses from one 96-well plate, containing the drug dilutions, to the plates containing the cells. After two days of continuous drug exposure, 50% cold trichloroacetic acid (TCA) is added to 10% final concentration to fix the cells, and after 60 minutes at 4° C., the TCA is aspirated and the plates are washed 5 times with deionized water using a microtiter plate washer. The number of cells on the plate are quantitated using a protein dye-binding assay (Monks et al., 1991). A 0.4% solution of the dye, sulforhodamine B, in glacial acetic acid is added to the plates, and the plates are washed 5 times with 1% glacial acetic acid using the automatic plate washed. The bound stain is solubilized with 0.1 ml of 10 mM Tris base. The optical densities are read from an automatic spectrophotometric plate reader (Dynatech) directly to a main frame computer (VAX 8600).
as §4, §5, §6, §7, §8, §9, §10, §11, §12, §13, §14
5) after staining with sulforhodamine B each well is washed 3 times, not five times; […]

In a further experiment the test system is CACO2. Put plainly: Antiproliferative activity in human tumor cell lines (CACO2). The settings on record: Caco-2, CACO2 colon tumor cell line. Here is the method: as §1, §2, §19, §4, §5, §6, §7, §8, §9, §10, §11, §12, §13, §14, §15
(§20) 6) the growth inhibition (I) as % of control, is calculated using the RS-1 data package (BBN Software), for every concentration of drug, as follows: [formula] wherein: T is optical density measurement for treated cells after 48 hours; […]

Another experiment concerns MIP. The experiment can be described thus: Antiproliferative activity in human tumor cell lines (MIP). To be noted: MIP colon tumor cell line. On the procedure: as §1, §2, §19, §4, §5, §6, §7, §8, §9, §10, §11, §12, §13, §14, §15, §20

Structures are written as SMILES. Structures can show the parent of a compound that is named as a salt. Where two headings read alike, the source gives them in different places.

For `CN(C)CC(=O)Nc1cc(N(C)C)c2c(c1O)C(=O)C1=C(O)[C@]3(O)C(=O)C(C(N)=O)=C(O)[C@@H](N(C)C)C3CC1C2` (stereo partly drawn) [Example 2, [4S-(4a,12aa-1-4,7-Bis(dimethylamino)-9-[[(dimethylamino)acetyl]amino]]-1,4,,4a,5,5a,6,11,12a-octahvdro-3,10,12,12a-tetrahydroxy-1,11-dioxo-2-napththacenecarboxamidedihydrochloride], the IC50 is 7 µg/mL in the experiment on A2780/DDP; about 3 µg/mL in experiment [1] (4 day assay (Protocol 3), FIG. 1 text, read-out: inhibits 50% of cell growth at); 3 µg/mL in experiment [1] (4 days exposure, read-out: IC50 PROTOCOL 3); 6 µg/mL in the experiment on HTB 161; 6.5 µg/mL in the experiment on A2780S; 5.8 µg/mL with Human Tumor cell lines. Also, the IC50 was 5.1 µg/mL in the experiment on CACO2 and 4.6 µg/mL with MIP. In experiment [1] (4 day assay (Protocol 3)), the “activity upon incubation with cells” value is listed as “retains its activity”.
Turning to `CCCCCCNCC(=O)Nc1cc(N(C)C)c2c(c1O)C(=O)C1=C(O)[C@]3(O)C(=O)C(C(N)=O)=C(O)[C@@H](N(C)C)C3CC1C2` (stereo partly drawn) [Example 4, [4S-(4α,12aα)]-4,7-Bis(dimethylamino)-9-[(hexylamino)acetyl]amino]-1,4,4a,5,5a,6,11,12a-octahydro-3,10,12,12a-tetrahydroxy-1,11-dioxo-2-naphthacenecarboxamide dihydrochloride], the IC50 in the experiment on A2780/DDP was found to be 2.3 µg/mL; in the experiment on HTB 161, 2 µg/mL; in the experiment with A2780S it was 2.3 µg/mL; in the experiment on Human Tumor cell lines it was 2.3 µg/mL; in the experiment with CACO2 it was 1.9 µg/mL; with MIP, 2.8 µg/mL.
For the molecule `CCCCCCCNCC(=O)Nc1cc(N(C)C)c2c(c1O)C(=O)C1=C(O)[C@]3(O)C(=O)C(C(N)=O)=C(O)[C@@H](N(C)C)C3CC1C2` (stereo partly drawn) [Example 5, [4S-(4α,12aα)]-4,7-Bis(dimethylamino)-9-[[(heptylamino)acetyl]amino]-1,4,4a,5,5a,6,11,12a-octahydro-3,10,12,12a-tetrahydroxy-1,11-dioxo-2-naphthacenecarboxamide dihydrochloride], the IC50 stood at 2.5 µg/mL with A2780/DDP; 2.3 µg/mL in the experiment with HTB 161; 2.5 µg/mL in the experiment with A2780S; 2.4 µg/mL with Human Tumor cell lines; 3.7 µg/mL in the experiment with CACO2; 3.2 µg/mL in the experiment on MIP.
